Laboratory results published in patent US5733890A, “Adenylate analogs as potent anti-herpes virus agents” (National Science Council, priority 1996, dated 1998).
pKi: −log10 of the molar value. In brackets after ≈: the same amount, converted by molar mass. Like-named read-outs stand apart in the source and are kept apart here.

Assays:
[1] = molecular target: T1, calf mucosal adenosine deaminase (EC 3.5.4.4) (Bos taurus, UniProt P56658); experiment: Deamination kinetics of compounds as substrates of adenosine deaminase; format: biochemical; details: for complex formation with adenosine deaminase: Table 1; for adenosine deaminase substrate / deamination by / resistance to adenosine deaminase: in words; for rel Vmax: relative, 37 = 1; for deamination by / resistance to adenosine deaminase: in vitro
T1 construct: calf mucosal adenosine deaminase; from tissue; host or cells: calf mucosa
T1 sequence (P56658 1-363): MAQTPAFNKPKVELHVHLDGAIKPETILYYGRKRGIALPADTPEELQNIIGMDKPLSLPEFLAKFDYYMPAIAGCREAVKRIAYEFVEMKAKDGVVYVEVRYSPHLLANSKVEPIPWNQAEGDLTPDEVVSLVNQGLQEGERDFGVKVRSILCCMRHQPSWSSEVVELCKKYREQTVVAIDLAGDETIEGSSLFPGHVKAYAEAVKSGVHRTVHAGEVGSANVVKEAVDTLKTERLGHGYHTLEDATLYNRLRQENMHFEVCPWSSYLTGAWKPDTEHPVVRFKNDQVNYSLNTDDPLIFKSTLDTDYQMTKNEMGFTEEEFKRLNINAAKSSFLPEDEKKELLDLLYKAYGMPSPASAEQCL
Source text: (§1) By following an established procedure [Ogilvie, K. K.; Nguyen-Ba, N.; Gillen, M. F.; Radatus, B. K.; Cheriyan, U. O.; Hanna, H. R.; Smith, K. O.; Galloway, K. S. Synthesis of A Purine Acyclonucleoside Series Having Pronounced Antiviral Activity. The Glyceropurines. Can. J. Chem. 1984, 62, 241-252.], we determined the rates of deamination of VI, 13, 37, 40, and 42 in the presence of calf mucosal adenosine deaminase (EC 3.5.4.4) in buffer solutions.

[2] = test system: herpes simplex type 1 virus (HSV-1); experiment: Inhibition of cytopathogenicity of HSV-1 in Hela cell culture; format: cell-based; details: for IC50: read-out: IC50 HSV-1 (KOS)
Procedure: (§2) We tested the synthesized compounds for their inhibition of cytopathogenicity of herpes simplex type 1 virus (HSV-1), herpes simplex type 2 virus (HSV-2), and varicella-zoster virus (VZV) in Hela cell culture. These compounds include VI, 12, 13, 40, 42, a mixture of VI and 13 (1:1), ara-A 37, and a mixture of 13 and 37 (1:1). Toxicity of these compounds was evaluated by their ability to cause morphological changes in cells at different concentrations.

[3] = Solubility in H2O (phosphate buffer); details: for solubility in H2O: phosphate buffer 0.10M, 20 h, UV absorbance; for solubility at 20 h: 0.10 m phosphate buffer, aqueous buffer; for water solubility (in words): from Table 2
Procedure: Each compound (70 mg) listed in Table 2 was agitated in a 25-mL volumetric flask with phosphate buffer (0.10M, 5.0 mL) for 20 h. This solution was filtered from undissolved solid through a sintered glass funnel (4.0-5.5 mesh ASTM) and the concentration of the solution was determined by UV absorbance (Table 2).

viral replication = details: background; cited from earlier work
[4] = molecular target: T1, calf mucosal adenosine deaminase (EC 3.5.4.4); experiment: Competitive inhibition of adenosine deaminase; format: biochemical; details: for type of inhibition of adenosine deaminase / pKi: Ara-A 37 used as substrate; for pKi: Kaplan method
Source text: as §1

[5] = Partition coefficient (lipophilicity), 1-pentanol / phosphate buffer; details: P = [Substrate]1-pentanol/[Substrate]H2O
Procedure: The layers were separated, and their concentrations were determined by an UV spectrophotometer.
^a Partition coefficients were calculated as follows:
P = [Substrate]1pentanol /[Substrate]H.sbsb.2O.

HSV-1, HSV-2 and VZV = experiment: Anti-herpes activity in Hela cell culture (all viruses of Table 3); format: cell-based; details: for effect on antiviral activity by mixing with compound 13: mixed with compound 13 (Table 3)
Procedure: as §2

[6] = test system: varicella-zoster virus (VZV); experiment: Inhibition of cytopathogenicity of VZV in Hela cell culture; format: cell-based; details: for IC50: read-out: IC50 VZV (YS)
Procedure: as §2

[7] = test system: herpes simplex type 2 virus (HSV-2); experiment: Inhibition of cytopathogenicity of HSV-2 in Hela cell culture; format: cell-based; details: for IC50: read-out: IC50 HSV-2 (G)
Procedure: as §2

[8] = Toxicity: morphological changes in Hela cells; format: cell-based; details: human; Hela cells; average of triplicate determinations; read-out: IC50 Hela cell (concentration required to cause microscopically visible change or disruption in about 50% of the cell sheet)
Procedure: as §2
(§3) ^b Concentration of the compound required to cause microsopically
(§4) visible change or disruption in about 50% of the cell sheet; and […]

Hela cell = experiment: Toxicity: morphological changes in Hela cells; format: cell-based; details: in comparison with Ara-A 37
Procedure: as §2, §3, §4

acute type B hepatitis = details: background; cited from earlier work
adenosine deaminase = details: background; cited from earlier work
[9] = background; cited from earlier work
[10] = Human alphaherpesvirus 1, strain KOS, Hela cell culture, average of triplicate determinations
[11] = Human alphaherpesvirus 3, strain YS, Hela cell culture, average of triplicate determinations
[12] = Human alphaherpesvirus 2, strain G, Hela cell culture, average of triplicate determinations

Row | Compound | complex formation with adenosine deaminase [1] | adenosine deaminase substrate [1] | rel Vmax [1] | IC50 [2, 10] [µg/mL] | solubility in H2O [3] [µg/mL] | inhibition of viral replication (viral replication) | type of inhibition of adenosine deaminase [4] | pKi [4] | log P [5] | effect on antiviral activity by mixing with compound 13 (HSV-1, HSV-2 and VZV) | IC50 [6, 11] [µg/mL] | IC50 [7, 12] [µg/mL] | CC50 [8] [µg/mL] | deamination by / resistance to adenosine deaminase [1] | antiviral activity against HSV-1 (in words) ([2]; Hela cell culture) | solubility at 20 h [3] [µg/mL] | water solubility (in words) [3] | antiviral activity against VZV (in words) ([6]; Hela cell culture) | antiviral activity against HSV-2 (in words) ([7]; Hela cell culture) | cellular toxicity (in words) (Hela cell) | further results
1 | Nc1ncnc2c1ncn2COCCO [VI, Acyclic adenosine, reference compound] | can form a complex | adenosine deaminase substrates | 1.52 × 10^-2 | 4.43 (≈ 21.2 µM) | 1950 (≈ 9320 µM) | can inhibit viral replication | competitive inhibition | 3.85 | 0.98 | synergistic effect | 6.5 (≈ 31.1 µM) | 8.26 (≈ 39.5 µM) | 266 (≈ 1270 µM) |  |  |  |  |  |  |  | 
2 | COC(=O)C(C)NP(=O)(CCOCn1cnc2c(N)ncnc21)OC1C(CO)OC(n2cnc3c(N)ncnc32)C1O [Compound 42, 9-(β-D-Arabinofuranosyl)adenine-3'-[(Methoxyalaninyl)[2-(adenin-9-ylmethoxy)ethyl]phosphonates]] |  |  |  | 0.38 (≈ 0.625 µM) |  |  |  |  | 0.87 |  | 4.82 (≈ 7.93 µM) | 0.88 (≈ 1.45 µM) | 215 (≈ 355 µM) | completely resisted deamination | exhibit antiviral activity | 8250 (≈ 13600 µM) | higher water solubility | exhibit antiviral activity | exhibit antiviral activity | lower cellular toxicity | Km ([1]; adenosine deaminase substrate, buffer solutions): > 1500 µM; antiviral activity (in words) (HSV-1, HSV-2 and VZV; Table 3): superior antiviral activity
3 | Nc1ncnc2c1ncn2COCCP(=O)(O)O[C@H]1[C@H](O)[C@H](n2cnc3c(N)ncnc32)O[C@@H]1CO [Compound 40, 9-(β-D-Arabinofuranosyl)adenine-3'-[[2-(Adenin-9-ylmethoxy)ethyl]phosphonate]] |  | a substrate of adenosine deaminase | 7.64 × 10^-2 | 8.97 (≈ 17.2 µM) | 2460 (≈ 4710 µM) |  |  |  | -0.68 |  | > 128 | 16.3 (≈ 31.2 µM) | 346 (≈ 662 µM) | slow rate of deamination | exhibit antiviral activity |  | higher water solubility | not active against VZV | exhibit antiviral activity | lower cellular toxicity | Vmax less than that of Ara-A 37 ([1]; versus Ara-A 37): 92%
4 | Nc1ncnc2c1ncn2COCCP(=O)(O)O [Compound 13, 2-[(Adenin-9-yl)methoxy]ethylphosphonic Acid] |  | adenosine deaminase substrates | 1.49 × 10^-6 | 3.98 (≈ 14.6 µM) | 13640 (≈ 49900 µM) |  | competitive inhibition | 4.74 | 0.07 |  | 16 (≈ 58.6 µM) | 5.86 (≈ 21.5 µM) | 215 (≈ 787 µM) |  | exhibit antiviral activity |  | higher water solubility | exhibit antiviral activity | exhibit antiviral activity | lower cellular toxicity | Vmax compared with that of VI (times less) ([1]; versus VI): ~ 10^-4 times less; inhibition of adenosine deaminase (in words) ([4]; Table 1): inhibits adenosine deaminase; efficiency as inhibitor of adenosine deaminase versus acyclonucleoside VI ([4]; compared with VI): acted more efficiently than acyclonucleoside VI
5 | CCOP(=O)(O)CCOCn1cnc2c(N)ncnc21.N [Compound 12, Ammonium Ethyl [2-[(Adenin-9-yl)methoxy]ethyl]phosphonate] |  |  |  |  |  |  |  |  |  |  |  |  | 176 |  | exhibit antiviral activity |  |  | exhibit antiviral activity | exhibit antiviral activity | lower cellular toxicity | IC50 ([2]; Human alphaherpesvirus 1, HeLa): 11.3 µg/mL; IC50 ([6]; Human alphaherpesvirus 3, HeLa): 25 µg/mL; IC50 ([7]; Human alphaherpesvirus 2, HeLa): 13.8 µg/mL
6 | Nc1ncnc2c1ncn2[C@@H]1O[C@H](CO)[C@@H](O)[C@@H]1O [Compound 37, 9-(β-D-arabinofuranosyl)adenine, reference compound] | can form a complex |  | 1 | 10.8 (≈ 40.4 µM) |  | can inhibit viral replication |  |  | -0.47 | synergistic effect | > 128 | > 128 | 98.8 (≈ 370 µM) |  |  | 400 (≈ 1500 µM) |  |  |  |  | potency in treating a patient having acute type B hepatitis (acute type B hepatitis): potent; conversion in vivo to hypoxanthine (Ara-Hx) via deamination by adenosine deaminase (adenosine deaminase): converted in vivo to hypoxanthine (Ara-Hx); lipophilicity (in words) [9]: poor lipophilicity
